The source made the active and inactive calls. The calls are words filed in the database; no cut-off is given here.
Experiments:
[1] = biological target: Serum paraoxonase/arylesterase 1 (Homo sapiens) (UniProt P27169); assay: Binding affinity to recombinant paraoxonase-1 (unknown origin) expressed in Escherichia coli after 5 mins by Trp-fluorescence quenching method
[2] = biological target: Serum paraoxonase/arylesterase 1 (Homo sapiens) (UniProt P27169); assay: Binding affinity to recombinant paraoxonase-1 (unknown origin) expressed in Escherichia coli
[3] = biological target: Serum paraoxonase/arylesterase 1 (Homo sapiens) (UniProt P27169); assay: Activation of recombinant paraoxonase-1 (unknown origin) expressed in Escherichia coli assessed as delaying of Cu2+-induced LDL oxidation time after 15 mins by UV ELISA

Sequence of Serum paraoxonase/arylesterase 1 (Homo sapiens) (P27169 whole entry): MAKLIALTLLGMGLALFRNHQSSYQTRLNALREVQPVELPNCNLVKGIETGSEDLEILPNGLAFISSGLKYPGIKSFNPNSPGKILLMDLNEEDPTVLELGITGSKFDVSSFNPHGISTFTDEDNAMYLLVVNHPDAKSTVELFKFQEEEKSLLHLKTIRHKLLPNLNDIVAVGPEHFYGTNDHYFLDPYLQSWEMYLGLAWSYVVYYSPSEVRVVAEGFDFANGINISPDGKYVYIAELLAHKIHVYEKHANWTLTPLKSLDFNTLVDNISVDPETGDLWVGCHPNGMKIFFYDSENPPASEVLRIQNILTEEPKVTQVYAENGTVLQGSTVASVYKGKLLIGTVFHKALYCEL

SMILES	KSV [1] [×10⁵ /M]	Ka [2] [×10⁵ /M]	Activity [3]	TIME [3] [h]
O=c1cc(-c2ccc(O)c(O)c2)oc2cc(O)ccc12	0.87	1.07	–	–
O=c1cc(-c2ccc(O)c(O)c2)oc2cc(O)cc(O)c12	1.34	1.33	–	–
Oc1cc(O)c2c(c1)OC(c1ccc(O)c(O)c1)C(O)C2 (stereo not given)	–	–	inactive	–
COc1ccc([C@@H]2CC(=O)c3c(O)cc(O)cc3O2)cc1O	0.6	0.66	–	–
O=c1cc(-c2ccc(O)cc2)oc2cc(O)cc(O)c12	1.15	1.13	–	–
O=c1c(O)c(-c2ccc(O)cc2)oc2cc(O)cc(O)c12	1.22	1.43	–	–
O=c1c(-c2ccc(O)cc2)coc2cc(O)ccc12	0.58	1.13	–	–
O=c1c(O)c(-c2ccc(O)c(O)c2)oc2cc(O)cc(O)c12	1.25	1.28	Active	–
O=c1cc(-c2ccc(O)cc2O)oc2ccccc12	0.54	0.75	–	–
CC1(C)C=Cc2c(ccc3c2OC[C@@H](c2ccc(O)cc2O)C3)O1	1.93	2.4	–	1.33
O=c1c(-c2ccc(O)cc2)coc2cc(O)cc(O)c12	0.64	0.86	–	–
O=C1C[C@@H](c2ccc(O)cc2)Oc2cc(O)cc(O)c21	0.35	0.68	–	–
